Data as given in the NIST ThermoML archive (doi:10.1016/j.fluid.2008.03.004).
± gives the expanded uncertainty stated by the source.

Test: xn = mol fraction of the nth substance listed
Conditions: 101 kPa, Liquid; for speed of sound: Sing-around technique in a fixed-path interferometer

CCOC(C)(C)C [2-ethoxy-2-methylpropane] + Cc1cccc(C)c1
Conditions | mass density [kg/m3] | speed of sound [m/s]
305.65 K, x1 = 0.05 | 847.026 ± 0.42 | –
305.65 K, x1 = 0.099 | 840.74 ± 0.43 | –
305.65 K, x1 = 0.2 | 828.116 ± 0.45 | –
305.65 K, x1 = 0.3 | 815.278 ± 0.47 | –
305.65 K, x1 = 0.4 | 802.699 ± 0.48 | –
305.65 K, x1 = 0.497 | 790.26 ± 0.5 | –
305.65 K, x1 = 0.598 | 777.566 ± 0.52 | –
305.65 K, x1 = 0.698 | 765.236 ± 0.54 | –
305.65 K, x1 = 0.8 | 752.76 ± 0.56 | –
305.65 K, x1 = 0.898 | 740.246 ± 0.57 | –
305.65 K, x1 = 0.95 | 733.801 ± 0.58 | –
305.65 K, x1 = 1 | 727.038 ± 0.58 | –
308.15 K, x1 = 0.05 | 844.847 ± 0.42 | 1261.4 ± 2.2
308.15 K, x1 = 0.099 | 838.542 ± 0.43 | 1248.3 ± 2.2
308.15 K, x1 = 0.2 | 825.874 ± 0.45 | 1219 ± 2.2
308.15 K, x1 = 0.3 | 812.993 ± 0.47 | 1189.3 ± 2.2
308.15 K, x1 = 0.4 | 800.369 ± 0.49 | 1159.9 ± 2.2
308.15 K, x1 = 0.497 | 787.887 ± 0.5 | 1131 ± 2.2
308.15 K, x1 = 0.598 | 775.147 ± 0.52 | 1101.7 ± 2.2
308.15 K, x1 = 0.698 | 762.77 ± 0.54 | 1074.5 ± 2.2
308.15 K, x1 = 0.8 | 750.245 ± 0.56 | 1045.6 ± 2.2
308.15 K, x1 = 0.898 | 737.68 ± 0.58 | 1018.8 ± 2.2
308.15 K, x1 = 0.95 | 731.212 ± 0.59 | 1004.3 ± 2.2
308.15 K, x1 = 1 | 724.443 ± 0.58 | 986.39 ± 2.2
310.65 K, x1 = 0.05 | 842.667 ± 0.43 | 1251.2 ± 2.2
310.65 K, x1 = 0.099 | 836.338 ± 0.43 | 1238 ± 2.2
310.65 K, x1 = 0.2 | 823.629 ± 0.45 | 1208.6 ± 2.2
310.65 K, x1 = 0.3 | 810.701 ± 0.47 | 1178.8 ± 2.2
310.65 K, x1 = 0.4 | 798.033 ± 0.49 | 1149.3 ± 2.2
310.65 K, x1 = 0.497 | 785.51 ± 0.51 | 1120.3 ± 2.2
310.65 K, x1 = 0.598 | 772.72 ± 0.53 | 1091 ± 2.2
310.65 K, x1 = 0.698 | 760.296 ± 0.54 | 1063.7 ± 2.2
310.65 K, x1 = 0.8 | 747.726 ± 0.56 | 1034.7 ± 2.2
310.65 K, x1 = 0.898 | 735.108 ± 0.58 | 1007.8 ± 2.2
310.65 K, x1 = 0.95 | 728.609 ± 0.59 | 993.27 ± 2.2
310.65 K, x1 = 1 | 721.826 ± 0.59 | 975.42 ± 2.2
313.15 K, x1 = 0.05 | 840.482 ± 0.43 | 1241 ± 2.2
313.15 K, x1 = 0.099 | 834.132 ± 0.44 | 1227.8 ± 2.2
313.15 K, x1 = 0.2 | 821.379 ± 0.46 | 1198.3 ± 2.2
313.15 K, x1 = 0.3 | 808.405 ± 0.47 | 1168.3 ± 2.2
313.15 K, x1 = 0.4 | 795.695 ± 0.49 | 1138.9 ± 2.2
313.15 K, x1 = 0.497 | 783.123 ± 0.51 | 1109.8 ± 2.2
313.15 K, x1 = 0.598 | 770.288 ± 0.53 | 1080.4 ± 2.2
313.15 K, x1 = 0.698 | 757.817 ± 0.55 | 1053 ± 2.2
313.15 K, x1 = 0.8 | 745.2 ± 0.57 | 1024 ± 2.2
313.15 K, x1 = 0.898 | 732.523 ± 0.58 | 996.88 ± 2.2
313.15 K, x1 = 0.95 | 726.007 ± 0.59 | 982.39 ± 2.2
313.15 K, x1 = 1 | 719.179 ± 0.59 | 964.53 ± 2.2
315.65 K, x1 = 0.05 | 838.29 ± 0.43 | 1230.9 ± 2.2
315.65 K, x1 = 0.099 | 831.922 ± 0.44 | 1217.6 ± 2.2
315.65 K, x1 = 0.2 | 819.125 ± 0.46 | 1188 ± 2.2
315.65 K, x1 = 0.3 | 806.105 ± 0.48 | 1157.9 ± 2.2
315.65 K, x1 = 0.4 | 793.351 ± 0.5 | 1128.5 ± 2.2
315.65 K, x1 = 0.497 | 780.733 ± 0.52 | 1099.2 ± 2.2
315.65 K, x1 = 0.598 | 767.848 ± 0.53 | 1069.7 ± 2.2
315.65 K, x1 = 0.698 | 755.328 ± 0.55 | 1042.3 ± 2.2
315.65 K, x1 = 0.8 | 742.656 ± 0.57 | 1013.2 ± 2.2
315.65 K, x1 = 0.898 | 729.931 ± 0.59 | 985.99 ± 2.2
315.65 K, x1 = 0.95 | 723.382 ± 0.6 | 971.39 ± 2.2
315.65 K, x1 = 1 | 716.527 ± 0.59 | 953.54 ± 2.2
318.15 K, x1 = 0.05 | 836.094 ± 0.44 | 1220.7 ± 2.2
318.15 K, x1 = 0.099 | 829.704 ± 0.45 | 1207.4 ± 2.2
318.15 K, x1 = 0.2 | 816.865 ± 0.46 | 1177.8 ± 2.2
318.15 K, x1 = 0.3 | 803.8 ± 0.48 | 1147.6 ± 2.2
318.15 K, x1 = 0.4 | 790.999 ± 0.5 | 1118 ± 2.2
318.15 K, x1 = 0.497 | 778.333 ± 0.52 | 1088.7 ± 2.2
318.15 K, x1 = 0.598 | 765.399 ± 0.54 | 1059.2 ± 2.2
318.15 K, x1 = 0.698 | 752.842 ± 0.56 | 1031.8 ± 2.2
318.15 K, x1 = 0.8 | 740.101 ± 0.57 | 1002.4 ± 2.2
318.15 K, x1 = 0.898 | 727.323 ± 0.59 | 975.1 ± 2.2
318.15 K, x1 = 0.95 | 720.743 ± 0.6 | 960.42 ± 2.2
318.15 K, x1 = 1 | 713.96 ± 0.6 | 942.67 ± 2.2
320.65 K, x1 = 0.05 | 833.892 ± 0.44 | 1210.6 ± 2.2
320.65 K, x1 = 0.099 | 827.484 ± 0.45 | 1197.3 ± 2.2
320.65 K, x1 = 0.2 | 814.602 ± 0.47 | 1167.6 ± 2.2
320.65 K, x1 = 0.3 | 801.489 ± 0.49 | 1137.3 ± 2.2
320.65 K, x1 = 0.4 | 788.639 ± 0.5 | 1107.6 ± 2.2
320.65 K, x1 = 0.497 | 775.926 ± 0.52 | 1078.3 ± 2.2
320.65 K, x1 = 0.598 | 762.944 ± 0.54 | 1048.6 ± 2.2
320.65 K, x1 = 0.698 | 750.335 ± 0.56 | 1021.1 ± 2.2
320.65 K, x1 = 0.8 | 737.539 ± 0.58 | 991.66 ± 2.2
320.65 K, x1 = 0.898 | 724.705 ± 0.6 | 964.24 ± 2.2
320.65 K, x1 = 0.95 | 718.093 ± 0.61 | 949.5 ± 2.2
320.65 K, x1 = 1 | 711.25 ± 0.6 | 931.73 ± 2.2
323.15 K, x1 = 0.05 | 831.689 ± 0.44 | 1200.6 ± 2.2
323.15 K, x1 = 0.099 | 825.258 ± 0.45 | 1187.2 ± 2.2
323.15 K, x1 = 0.2 | 812.331 ± 0.47 | 1157.4 ± 2.2
323.15 K, x1 = 0.3 | 799.17 ± 0.49 | 1127 ± 2.2
323.15 K, x1 = 0.4 | 786.273 ± 0.51 | 1097.3 ± 2.2
323.15 K, x1 = 0.497 | 773.51 ± 0.53 | 1067.8 ± 2.2
323.15 K, x1 = 0.598 | 760.487 ± 0.54 | 1038.2 ± 2.2
323.15 K, x1 = 0.698 | 747.817 ± 0.56 | 1010.4 ± 2.2
323.15 K, x1 = 0.8 | 734.964 ± 0.58 | 980.96 ± 2.2
323.15 K, x1 = 0.898 | 722.075 ± 0.6 | 953.5 ± 2.2
323.15 K, x1 = 0.95 | 715.433 ± 0.61 | 938.66 ± 2.2
323.15 K, x1 = 1 | 708.642 ± 0.61 | 920.73 ± 2.2
